Laboratory results from US10874743B2, “IRAK degraders and uses thereof” (Kymera Therapeutics, Inc., priority 2017, dated 2020).

How the values were obtained:
[1] = tested on: OCI-LY10 cells; assay: OCI-LY-10 CTG cell viability assay (EC50); format: cell-based; details: Homo sapiens, 96 h, CellTiter-Glo cell viability, 4 days incubation, top concentration 10 μM, read-out: OCI-LY10 IRAK4 EC50
Experimental: A CTG cell viability assay using OCI-LY-10 cells was run to determine compound-mediated cell viability (EC50).
Compound-mediated viability effect on OCI-LY10 was quantitatively determined using the CellTiter-Glo® Luminescent Cell Viability Assay kit from Promega (Catalog number G7570) following manufacturer's recommended procedures. […] Compounds were then added to the assay plate with final top concentration of 10 μM and 1:3 dilution series with total of 9 doses. The final DMSO concentration was normalized to 0.2%. The assay plates were incubated at 37° C. for 4 days under 5% CO2. Then the assay plate was equilibrated at room temperature for 10 minutes. […] The data was then analyzed by software Prism 7.0 from GraphPad and the dose response curves were fit using a three-parameter logistic equation to calculate EC50.

[2] = target: T1, IRAK4 (Homo sapiens, UniProt Q9NWZ3); assay: OCI-LY-10 MSD assay for IRAK4 DC50; format: cell-based; set-up: endogenous in cells; host or cells: OCI-LY10; details: OCI-LY10 cells, 4 hr incubation, concentration required to degrade 50% of protein
T1 sequence (Q9NWZ3 1-460): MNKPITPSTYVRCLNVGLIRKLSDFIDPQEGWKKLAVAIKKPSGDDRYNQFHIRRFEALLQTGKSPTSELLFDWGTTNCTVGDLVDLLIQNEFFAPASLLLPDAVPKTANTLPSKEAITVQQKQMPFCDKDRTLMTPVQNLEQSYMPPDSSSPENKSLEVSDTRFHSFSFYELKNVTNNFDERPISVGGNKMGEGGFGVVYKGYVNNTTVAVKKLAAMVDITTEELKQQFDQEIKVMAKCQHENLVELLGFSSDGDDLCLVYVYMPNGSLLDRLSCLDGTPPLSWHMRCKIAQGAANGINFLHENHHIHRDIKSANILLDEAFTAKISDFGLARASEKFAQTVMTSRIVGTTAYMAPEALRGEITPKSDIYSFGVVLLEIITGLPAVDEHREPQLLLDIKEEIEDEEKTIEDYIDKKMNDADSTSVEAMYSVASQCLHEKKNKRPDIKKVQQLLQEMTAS
Procedure, shortened: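 IRAK4 level was quantified by MSD electrochemiluminescence (anti-IRAK4 capture antibody, rabbit anti-IRAK4 detection antibody) in RIPA lysates of OCI-Ly10 cells. Cells had been treated with compound for 4 hr (8-point, 3-fold serial dilution). Remaining protein versus concentration was fitted to a sigmoidal curve to give DC50.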

SMILES | EC50 [1] | DC50 [2]
CN(C[C@@H]1CN(CCCc2cccc3c2n(C)c(=O)n3C2CCC(=O)NC2=O)CCO1)C(=O)c1ccc(-n2cc(NC(=O)c3coc(-c4ccnc(NCC5CC5)c4)n3)c(C(F)F)n2)cc1 (some centres unmarked) [I-514] | < 50 nM | < 50 nM
CN[C@@H](C)C(=O)N[C@H](C(=O)N1CCC[C@H]1c1nc(C(=O)c2cccc(OCCOCCOCCNCc3ccc(-n4cc(NC(=O)c5coc(-c6ccnc(NCC7CC7)c6)n5)c(C(F)F)n4)cc3)c2)cs1)C1CCCCC1 [I-556] | > 1000 nM | 500 to 1000 nM
Cn1c(=O)n(C2CCC(=O)NC2=O)c2cccc(CCCN3CCO[C@H](CNCc4ccc(-n5cc(NC(=O)c6coc(-c7ccnc(NCC8CC8)c7)n6)c(C(F)F)n5)cc4)C3)c21 (some centres unmarked) [I-587] | < 50 nM | < 50 nM
O=C1CCC(n2c(=O)oc3c(CCCN4CCO[C@H](CNCc5ccc(-n6cc(NC(=O)c7coc(-c8ccnc(NCC9CC9)c8)n7)c(C(F)F)n6)cc5)C4)cccc32)C(=O)N1 (some centres unmarked) [I-590] | < 50 nM | < 50 nM
NC(=O)c1nn(-c2ccc(CNCCOCCOCCCc3ccc4c(c3)oc(=O)n4C3CCC(=O)NC3=O)cc2)cc1NC(=O)c1coc(-c2ccnc(NCC(F)(F)F)c2)n1 (centres unmarked) [I-568] | 100 to 500 nM | < 50 nM
CN(Cc1ccc(-n2cc(NC(=O)c3coc(-c4ccnc(NCC5CC5)c4)n3)c(C(F)F)n2)cc1)C[C@@H]1CN(CCCc2ccc3c(c2)n(C)c(=O)n3C2CCC(=O)NC2=O)CCO1 (some centres unmarked) [I-599] | < 50 nM | 100 to 500 nM
Cn1c(=O)n(C2CCC(=O)NC2=O)c2ccc(CN3CCN(CCO[C@H]4C[C@H](NCc5ccc(-n6cc(NC(=O)c7coc(-c8ccnc(NCC9CC9)c8)n7)c(C(F)F)n6)cc5)C4)CC3)cc21 (some centres unmarked) [I-583] | < 50 nM | < 50 nM
Cn1c(=O)n(C2CCC(=O)NC2=O)c2cccc(CCCOCCCNCc3ccc(-n4cc(NC(=O)c5coc(-c6ccnc(NCC(F)(F)F)c6)n5)c(C(F)F)n4)cc3)c21 (centres unmarked) [I-535] | > 1000 nM | < 50 nM
Cn1c(=O)n([C@H]2CCC(=O)NC2=O)c2ccc(CCCCOCCCCNCc3ccc(-n4cc(NC(=O)c5coc(-c6ccnc(NCC7CC7)c6)n5)c(C(F)F)n4)cc3)cc21 (single isomer, unassigned) [I-699] | < 50 nM | 100 to 500 nM
Cn1c(=O)n(C2CCC(=O)NC2=O)c2ccc(CCCOCCOCCNC(=O)c3ccc(-n4cc(NC(=O)c5coc(-c6ccnc(NCC7CC7)c6)n5)c(C(F)F)n4)cc3F)cc21 (centres unmarked) [I-470] | < 50 nM | < 50 nM
O=C1CCC(n2c(=O)oc3cc(CCCOCCOCCNC(=O)c4ccc(-n5cc(NC(=O)c6coc(-c7ccnc(NCC8CC8)c7)n6)c(C(F)F)n5)cc4)ccc32)C(=O)N1 (centres unmarked) [I-462] | < 50 nM | < 50 nM
CN(CCCCOCCCCc1ccc2c(c1)n(C)c(=O)n2C1CCC(=O)NC1=O)C(=O)c1ccc(-n2cc(NC(=O)c3coc(-c4ccnc(NCC(F)(F)F)c4)n3)c(C(N)=O)n2)cc1 (centres unmarked) [I-489] | 500 to 1000 nM | < 50 nM
C=C1N(C)c2c(CCCOCCCN(C)C(=O)c3ccc(-n4cc(NC(=O)c5coc(-c6ccnc(NCC7CC7)c6)n5)c(C(F)F)n4)cc3)cccc2N1C1CCC(=O)NC1=O (centres unmarked) [I-473] | 50 to 100 nM | < 50 nM
O=C1CCC(N2C[C@H](c3ccc(C#CCN4CCO[C@@H](CNCc5ccc(-n6cc(NC(=O)c7coc(-c8ccnc(NCC9CC9)c8)n7)c(C(F)F)n6)cc5)C4)cc3)OC2=O)C(=O)N1 (some centres unmarked) [I-585] | < 50 nM | < 50 nM
O=C1CCC(n2c(=O)oc3cc(CCCOCCCNCc4ccc(-n5cc(NC(=O)c6coc(-c7ccnc(NCC8CC8)c7)n6)c(C(F)F)n5)cc4)ccc32)C(=O)N1 (centres unmarked) [I-549] | < 50 nM | < 50 nM
O=C1CCC(n2c(=O)oc3cc(CCCOCCOCCNCc4ccc(-n5cc(NC(=O)c6coc(-c7ccnc(NCC8CC8)c7)n6)c(C(F)F)n5)cc4)ccc32)C(=O)N1 (centres unmarked) [I-550] | < 50 nM | < 50 nM
Cn1c(=O)n(C2CCC(=O)NC2=O)c2ccc(CCCN3CCO[C@@H](CNCc4ccc(-n5cc(NC(=O)c6coc(-c7ccnc(NCC8CC8)c7)n6)c(C(F)F)n5)cc4)C3)cc21 (some centres unmarked) [I-574] | < 50 nM | < 50 nM

SMILES | EC50 [1] | DC50 [2]
Cn1c(=O)n(C2CCC(=O)NC2=O)c2ccc(CCCN3CCO[C@H](CCNCc4ccc(-n5cc(NC(=O)c6coc(-c7ccnc(NCC(F)(F)F)c7)n6)c(C(N)=O)n5)cc4)C3)cc21 (some centres unmarked) [I-576] | < 50 nM | < 50 nM
CN(CCCOCCCc1ccc2c(c1)n(C)c(=O)n2C1CCC(=O)NC1=O)C(=O)c1ccc(-n2cc(NC(=O)c3coc(-c4ccnc(NCC5CC5)c4)n3)c(C(F)F)n2)cc1 (centres unmarked) [I-477] | < 50 nM | < 50 nM
CN(CC[C@H]1CN(CCCc2ccc3c(c2)n(C)c(=O)n3C2CCC(=O)NC2=O)CCO1)Cc1ccc(-n2cc(NC(=O)c3coc(-c4ccnc(NCC5CC5)c4)n3)c(C(F)F)n2)cc1 (some centres unmarked) [I-592] | < 50 nM | < 50 nM
Cn1c(=O)n(C2CCC(=O)NC2=O)c2cccc(CCCOCCCNC(=O)c3ccc(-n4cc(NC(=O)c5coc(-c6ccnc(NCC7CC7)c6)n5)c(C(F)F)n4)cc3)c21 (centres unmarked) [I-460] | < 50 nM | < 50 nM
CN[C@@H](C)C(=O)N[C@H](C(=O)N1Cc2cc(OCCOCCOCCOCCOCCOCCNCc3ccc(-n4cc(NC(=O)c5coc(-c6ccnc(NCC7CC7)c6)n5)c(C(F)F)n4)cc3)ccc2C[C@H]1C(=O)N[C@@H]1CCCc2ccccc21)C(C)(C)C [I-680, 2-[2-(Cyclopropylmethylamino)-4-pyridyl]-N-[3-(difluoromethyl)-1-[4-[[2-[2-[2-[2-[2-[2-[[(3S)-2-[(2S)-3,3-dimethyl-2-[[(2S)-2-(methylamino)propanoyl]amino]butanoyl]-3-[[(1R)-tetralin-1-yl]carbamoyl]-3,4-dihydro-1H-isoquinolin-7-yl]oxy]ethoxy]ethoxy]ethoxy]ethoxy]ethoxy]ethylamino]methyl]-phenyl]pyrazol-4-yl]oxazole-4-carboxamide] | > 1000 nM | > 1000 nM
O=C1CCC(N2C[C@H](c3cccc(C#CCCOCCCNCc4ccc(-n5cc(NC(=O)c6coc(-c7ccnc(NCC8CC8)c7)n6)c(C(F)F)n5)cc4)c3)OC2=O)C(=O)N1 (some centres unmarked) [I-581] | 100 to 500 nM | –
CN(CC(=O)N(C)CC(=O)N(C)CC(=O)N(C)CCCc1ccc2c(c1)n(C)c(=O)n2C1CCC(=O)NC1=O)Cc1ccc(-n2cc(NC(=O)c3coc(-c4ccnc(NCC(F)(F)F)c4)n3)c(C(N)=O)n2)cc1 (centres unmarked) [I-526] | > 1000 nM | –
Cn1cc(NC(=O)c2cnn3ccc(N4CCNCC4)nc23)c(C(=O)NCCOCCOCCOCCNc2cccc3c2C(=O)N(C2CCC(=O)NC2=O)C3=O)n1 (centres unmarked) [I-471] | > 1000 nM | –
Cn1c(=O)n(C2CCC(=O)NC2=O)c2ccc(CCCOCCOCCNC(c3ccc(-n4cc(NC(=O)c5coc(-c6ccnc(NCC7CC7)c6)n5)c(C(N)=O)n4)cc3)C(F)(F)F)cc21 (centres unmarked) [I-448] | 100 to 500 nM | –
Cn1c(=O)n(C2CCC(=O)NC2=O)c2cccc(CCCOCCOCCNCc3ccc(-n4cc(NC(=O)c5cc(C#N)ccn5)c(C(N)=O)n4)cc3)c21 (centres unmarked) [I-527] | > 1000 nM | –
O=C1CCC(N2Cc3cc(CNC(=O)NCCOCCOCCNC(=O)n4cc(NC(=O)c5coc(-c6ccnc(NCC7CC7)c6)n5)c(C(F)F)n4)ccc3C2=O)C(=O)N1 (centres unmarked) [I-458] | 50 to 100 nM | –
Cn1cc(NC(=O)c2coc(-c3ccnc(NCC(F)(F)F)c3)n2)c(-c2cncc(CNCCOCCOCCCc3cccc4c3n(C)c(=O)n4C3CCC(=O)NC3=O)c2)n1 (centres unmarked) [I-541] | > 1000 nM | –
CN(CCCCOCCCCc1ccc2c(c1)n(C)c(=O)n2C1CCC(=O)NC1=O)Cc1ccc(-n2cc(NC(=O)c3coc(-c4ccnc(NCC(F)(F)F)c4)n3)c(C(N)=O)n2)cc1 (centres unmarked) [I-578] | 500 to 1000 nM | –
CN1C(=O)CCC(n2c(=O)n(C)c3c(CCCOCCOCCNC(=O)c4ccc(-n5cc(NC(=O)c6coc(-c7ccnc(NCC8CC8)c7)n6)c(C(F)F)n5)cc4)cccc32)C1=O (centres unmarked) [I-515] | 500 to 1000 nM | –
Cc1ncsc1-c1ccc(CNC(=O)[C@@H]2C[C@@H](O)CN2C(=O)[C@@H](NC(=O)COCCOCCOCCOCCOCC(=O)N2CCN(c3ccn4ncc(C(=O)Nc5cn(C)nc5C(F)F)c4n3)CC2)C(C)(C)C)cc1 [I-484] | > 1000 nM | –
Cn1c(=O)n(C2CCC(=O)NC2=O)c2ccc(CNC(=O)OCCCNCc3ccc(-n4cc(NC(=O)c5coc(-c6ccnc(NCC(F)(F)F)c6)n5)c(C(N)=O)n4)cc3)cc21 (centres unmarked) [I-563] | > 1000 nM | –
Cn1c(=O)n(C2CCC(=O)NC2=O)c2cccc(C#CCOCCOCCn3cc4cc(NC(=O)c5cccc(C(F)(F)F)n5)c(C(C)(C)O)cc4n3)c21 (centres unmarked) [I-688, N-[2-[2-[2-[3-[1-(2,6-dioxo-3-piperidyl)-3-methyl-2-oxo-benzimidazol-4-yl]prop-2-ynoxy]ethoxy]ethyl]-6-(1-hydroxy-1-methyl-ethyl)indazol-5-yl]-6-(trifluoromethyl)pyridine-2-carboxamide] | > 1000 nM | –
